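Method: 48-hour compound exposure of cells in 96-well plates, five concentrations, linear interpolation of endpoints. Abbreviation: GI50, concentration required for 50% inhibition of growth. TGI: total growth inhibition.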
Experiments:
Assay in all cases: inhibition of tumour cell growth, NCI panel, 48 h
NCI-H23 lung = tested on: NCI-H23 lung
MDA-MB-435 = tested on: MDA-MB-435
COLO 205 colon = tested on: COLO 205 colon
UACC-62 melanoma = tested on: UACC-62 melanoma
SF-268 CNS = tested on: SF-268 CNS
SR leukemia = tested on: SR leukemia
ACHN renal = tested on: ACHN renal
HCT-15 colon = tested on: HCT-15 colon
U251 CNS = tested on: U251 CNS
MDA-N = tested on: MDA-N

Row | Structure (SMILES) | GI50 (NCI-H23 lung) [µM] | TGI (NCI-H23 lung) [µM] | GI50 (MDA-MB-435) [µM] | TGI (MDA-MB-435) [µM] | GI50 (COLO 205 colon) [µM] | TGI (COLO 205 colon) [µM] | GI50 (UACC-62 melanoma) [µM] | TGI (UACC-62 melanoma) [µM] | GI50 (SF-268 CNS) [µM] | TGI (SF-268 CNS) [µM] | GI50 (SR leukemia) [µM] | TGI (SR leukemia) [µM] | GI50 (ACHN renal) [µM] | TGI (ACHN renal) [µM] | GI50 (HCT-15 colon) [µM] | TGI (HCT-15 colon) [µM] | GI50 (U251 CNS) [µM] | TGI (U251 CNS) [µM] | TGI (MDA-N) [µM]
1 | O=C(Cc1csc2nc(-c3ccc(Cl)cc3)cn12)N/N=C/c1ccccc1O | 5.32 | > 100 | 6.1 | > 100 | 2.93 | > 100 | 3.42 | 38.9 | 1.26 | 54.8 | 0.603 | > 100 | 1.77 | > 100 | 0.468 | > 100 | 1.77 | 35.4 | –
2 | Cc1n[n+]([O-])c(C)cc1[N+](=O)[O-] | – | 29.9 | – | 29 | – | 26.3 | – | 31.5 | – | > 100 | – | – | – | 30.2 | – | 29.3 | – | 51.9 | –
3 | CC(C)CC1c2[nH]c3ccccc3c2C[C@H]2C(=O)NC(CCCCNC(=O)OC(C)(C)C)C(=O)N12 (some centres not stated) | – | > 100 | – | > 100 | – | 72.2 | – | > 100 | – | > 100 | – | 50 | – | > 100 | – | > 100 | – | > 100 | > 100
4 | COc1ccc(-n2c3c(c4cc(O)ccc42)Cc2ccccc2C3=O)cc1 | – | > 100 | – | > 100 | – | 51 | – | > 100 | – | > 100 | – | > 100 | – | – | – | > 100 | – | > 100 | > 100
5 | Cc1cc2ccc(OC(=O)c3ccc(N=C(N)N)cc3)cc2oc1=O | – | 46.5 | – | 58.1 | – | 55.9 | – | 79.1 | – | 73.8 | – | 58.4 | – | > 100 | – | > 100 | – | 45.6 | 83.8
6 | Clc1ccc(Nc2nc(Nc3ccccc3)nc(Nc3ccc(-c4cc(-c5ccc(Cl)cc5)on4)cc3)n2)cc1 | 18.4 | 60.4 | 17.8 | 69.7 | 11.9 | 32.5 | 16.7 | 72.4 | 43.4 | > 100 | 26 | > 100 | 21.9 | > 100 | 14.1 | 84.8 | 17.7 | > 100 | –
7 | COc1cc(C2SCC(=O)N2c2ccc(NC(C)=O)cc2)cc(OC)c1OC (configuration not stated) | – | > 100 | – | > 100 | – | > 100 | – | > 100 | – | > 100 | – | > 100 | – | > 100 | – | > 100 | – | > 100 | > 100
8 | O=C(O)C(O)C(O)C(O)C(O)C(=O)O (configuration not stated) | – | > 100 | – | > 100 | – | > 100 | – | > 100 | – | > 100 | – | > 100 | – | > 100 | – | > 100 | – | > 100 | > 100
9 | N=c1ccc2nc(N)nn(O)c-2c1 | – | > 100 | – | > 100 | – | > 100 | – | > 100 | – | > 100 | – | > 100 | – | > 100 | – | > 100 | – | > 100 | > 100
10 | CC1(C(=O)O)C[C@](C)(C(=O)OCc2ccccc2)C[C@](C)(C(=O)OCc2ccccc2)C1 (some centres not stated) | – | 56.6 | – | > 100 | – | 33.8 | – | 45.4 | – | > 100 | – | 83.7 | – | 57.5 | – | 85.9 | – | – | > 100
11 | O=C(CC(c1ccccc1)C1C(=O)NC(=S)NC1=O)c1ccc([N+](=O)[O-])cc1 (configuration not stated) | – | > 100 | – | > 100 | – | > 100 | – | > 100 | – | > 100 | – | > 100 | – | > 100 | – | > 100 | – | > 100 | > 100
12 | COc1ccc(-c2nn(-c3ccc(NC(=O)c4cc(Cl)cc(Cl)c4)cc3)cc2-c2ccncc2)cc1Cl | > 100 | > 100 | > 100 | > 100 | > 100 | > 100 | 5.27 | > 100 | > 100 | > 100 | 2.72 | > 100 | > 100 | > 100 | 1.77 | > 100 | 1.84 | > 100 | –
13 | Cc1cc(S(=O)(=O)NC2=NCCN2Cc2ccccc2)c(S)cc1Cl | – | > 100 | – | > 100 | – | > 100 | – | > 100 | – | > 100 | – | – | – | > 100 | – | > 100 | – | > 100 | > 100
14 | CCOC(=O)c1c(-c2cccc(Cl)c2)c(C(=O)OC)c(C)c2sc(C=O)nc12 | – | > 100 | – | 38.7 | – | 34.4 | – | 32.2 | – | 38.6 | – | – | – | 31.4 | – | 36.9 | – | 32.2 | 56.7
15 | C[N+]1(CCC(=O)c2ccccc2)CCC2CCC(C2)C1 (configuration not stated) | – | > 100 | – | > 100 | – | > 100 | – | > 100 | – | > 100 | – | > 100 | – | > 100 | – | > 100 | – | > 100 | > 100
16 | O=C(O)C1CCCCN1C(=O)Cc1c[nH]c2ccccc12 (configuration not stated) | – | > 100 | – | > 100 | – | > 100 | – | > 100 | – | > 100 | – | – | – | > 100 | – | > 100 | – | > 100 | > 100

— PubChem BioAssay (NCI)
